Data published in ChEMBL document CHEMBL4000146, “Synthesis, antiplasmodial activity and mechanistic studies of pyrimidine-5-carbonitrile and quinoline hybrids” (Eur J Med Chem, 2015).

Key:
Plasmodium falciparum [1] = experiment: Resistance index, ratio of IC50 for chloroquine-resistant asexual intraerythrocytic stage of Plasmodium falciparum Dd2 to IC50 for chloroquine-sensitive asexual intraerythrocytic stage of Plasmodium falciparum NF54; format: functional
L1210 = experiment: Cytotoxicity against mouse L1210 cells assessed as inhibition of cell proliferation by Coulter counter analysis; format: cell-based
CCRF-CEM = experiment: Cytotoxicity against human CEM cells assessed as inhibition of cell proliferation by Coulter counter analysis; format: cell-based
HeLa = experiment: Cytotoxicity against human HeLa cells assessed as inhibition of cell proliferation by Coulter counter analysis; format: cell-based
[2] = Selectivity index, ratio of IC50 for human HeLa cells to IC50 for chloroquine-sensitive asexual intraerythrocytic stage of Plasmodium falciparum NF54; format: toxicity, cell-based; details: read-out: Ratio IC50
[3] = Selectivity index, ratio of IC50 for human HeLa cells to IC50 for chloroquine-resistant asexual intraerythrocytic stage of Plasmodium falciparum Dd2; format: toxicity, cell-based; details: read-out: Ratio IC50
[4] = Cytotoxicity against human HEL cells assessed as alteration of normal cell morphology by microscopic analysis; format: cell-based
[5] = Cytotoxicity against human HEL cells assessed as inhibition of cell viability by colorimetric formazan-based MTS assay
[6] = Cytotoxicity against human HeLa cells assessed as alteration of normal cell morphology by microscopic analysis; format: cell-based
[7] = Cytotoxicity against african green monkey Vero cells assessed as alteration of normal cell morphology by microscopic analysis; format: cell-based; details: chlorocebus sabaeus
Human alphaherpesvirus 1 [8] = format: functional, cell-based; details: Human alphaherpesvirus 1, KOS, HEL
Human alphaherpesvirus 2 = format: functional, cell-based; details: Human alphaherpesvirus 2, G, HEL
Human alphaherpesvirus 1 [9] = format: functional, cell-based; details: Human alphaherpesvirus 1, KOS, HEL; remark: listed apart in the source
unidentified adenovirus = format: functional, cell-based; details: HEL
Coxsackievirus [10] = format: functional, cell-based; details: B4, HeLa
Human orthopneumovirus = format: functional, cell-based; details: human respiratory syncytial virus, HeLa
Human respirovirus 3 = format: functional; details: Human respirovirus 3, Vero
[11] = system: Mammalian orthoreovirus 1; format: functional; details: Mammalian orthoreovirus 1, Vero
Sindbis virus = format: functional; details: Vero
Coxsackievirus [12] = format: functional; details: B4, Vero
Punta Toro virus = format: functional; details: Vero
Human betaherpesvirus 5 [13] = format: functional, cell-based; details: Human betaherpesvirus 5, AD169, HEL
Human betaherpesvirus 5 [14] = format: functional, cell-based; details: Human betaherpesvirus 5, Davis, HEL
Human alphaherpesvirus 3 [15] = format: functional, cell-based; details: Human alphaherpesvirus 3, strain Oka vaccine, HEL
Human alphaherpesvirus 3 [16] = format: functional, cell-based; details: Human alphaherpesvirus 3, 07-1, HEL
[17] = Cytotoxicity against MDCK cells assessed as alteration of normal cell morphology by microscopic analysis; format: cell-based, Canis lupus familiaris; details: dog
[18] = Cytotoxicity against MDCK cells assessed as inhibition of cell viability by colorimetric formazan-based MTS assay; parameters: species or system Canis lupus familiaris; details: dog
Plasmodium falciparum [19] = experiment: microbe, parasite or virus in culture; details: NF54
Plasmodium falciparum [20] = experiment: microbe, parasite or virus in culture; details: Dd2
Vaccinia virus = experiment: microbe, parasite or virus in culture; details: Orthopoxvirus vaccinia, HEL
[21] = system: Vesicular stomatitis virus; experiment: microbe, parasite or virus in culture; details: HEL
[22] = system: Vesicular stomatitis virus; experiment: microbe, parasite or virus in culture; details: HeLa
Influenza A virus [23] = experiment: microbe, parasite or virus in culture; details: H1N1, MDCK
Influenza A virus [24] = experiment: microbe, parasite or virus in culture; details: H3N2, MDCK
Influenza B virus = experiment: microbe, parasite or virus in culture; details: MDCK

Compound	IC50 (L1210)	IC50 (CCRF-CEM)	IC50 (HeLa)	MCC [4]	CC50 [5]	MCC [6]	MCC [7]	EC50 (Human alphaherpesvirus 1 [8])	EC50 (Human alphaherpesvirus 2)	EC50 (Human alphaherpesvirus 1 [9])	EC50 (unidentified adenovirus)	EC50 (Coxsackievirus [10])	EC50 (Human orthopneumovirus)	EC50 [11]	EC50 (Sindbis virus)	EC50 (Coxsackievirus [12])	CC50 [18]	EC50 (Influenza A virus [23])	EC50 (Influenza A virus [24])	EC50 (Influenza B virus)	further results
CSc1nc(NCCCCNc2ccnc3cc(Cl)ccc23)c(C#N)c(-c2ccc(C)cc2)n1	4.3 µM	4.9 µM	5 µM	20 µM	8.2 µM	100 µM	20 µM	> 4 µM	> 4 µM	> 4 µM	> 4 µM	> 20 µM	> 20 µM	> 4 µM	> 4 µM	> 4 µM	9.9 µM	> 4 µM	> 4 µM	> 4 µM	Ratio IC50 (Plasmodium falciparum [1]): 4.54; selectivity ratio [2]: 41.9; selectivity ratio [3]: 9.2; EC50 (Human respirovirus 3): > 4 µM; EC50 (Punta Toro virus): > 4 µM; EC50 (Human betaherpesvirus 5 [13]): > 4 µM; EC50 (Human betaherpesvirus 5 [14]): > 4 µM; EC50 (Human alphaherpesvirus 3 [15]): > 4 µM; EC50 (Human alphaherpesvirus 3 [16]): > 4 µM; MCC [17]: 20 µM; IC50 (Plasmodium falciparum [19]): 0.119 µM; IC50 (Plasmodium falciparum [20]): 0.543 µM; EC50 (Vaccinia virus): > 4 µM; EC50 [21]: > 4 µM; EC50 [22]: > 20 µM
CCN(CC)CCCC(C)Nc1ccnc2cc(Cl)ccc12 (stereo not given) [CHLOROQUINE]	15 µM	23 µM	18 µM	≥ 20 µM	58.5 µM	> 100 µM	> 100 µM	> 20 µM	> 20 µM	> 20 µM	> 20 µM	> 100 µM	> 100 µM	> 100 µM	> 100 µM	> 100 µM	55.6 µM	> 20 µM	> 20 µM	> 20 µM	EC50 (Human respirovirus 3): > 100 µM; EC50 (Punta Toro virus): > 100 µM; EC50 (Human betaherpesvirus 5 [13]): > 20 µM; EC50 (Human betaherpesvirus 5 [14]): > 4 µM; EC50 (Human alphaherpesvirus 3 [15]): > 4 µM; EC50 (Human alphaherpesvirus 3 [16]): > 4 µM; MCC [17]: 100 µM; EC50 (Vaccinia virus): > 20 µM; EC50 [21]: > 20 µM; EC50 [22]: > 100 µM
CSc1nc(OCCCNc2ccnc3cc(Cl)ccc23)c(C#N)c(-c2ccccc2)n1	3.9 µM	3.3 µM	3.4 µM	4 µM	1.7 µM	4 µM	4 µM	> 0.8 µM	> 0.8 µM	> 0.8 µM	> 0.8 µM	> 0.8 µM	> 0.8 µM	> 0.8 µM	> 0.8 µM	> 0.8 µM	2.1 µM	> 0.8 µM	> 0.8 µM	> 0.8 µM	Ratio IC50 (Plasmodium falciparum [1]): 2.34; selectivity ratio [2]: 38.3; selectivity ratio [3]: 16.3; EC50 (Human respirovirus 3): > 0.8 µM; EC50 (Punta Toro virus): > 0.8 µM; EC50 (Human betaherpesvirus 5 [13]): > 0.8 µM; EC50 (Human betaherpesvirus 5 [14]): > 0.8 µM; EC50 (Human alphaherpesvirus 3 [15]): > 0.8 µM; EC50 (Human alphaherpesvirus 3 [16]): > 0.8 µM; MCC [17]: 4 µM; IC50 (Plasmodium falciparum [19]): 0.0888 µM; IC50 (Plasmodium falciparum [20]): 0.208 µM; EC50 (Vaccinia virus): > 0.8 µM; EC50 [21]: > 0.8 µM; EC50 [22]: > 0.8 µM
CSc1nc(NCCCNc2ccnc3cc(Cl)ccc23)c(C#N)c(-c2ccccc2)n1	4.7 µM	4.7 µM	11 µM	20 µM	43.4 µM	100 µM	100 µM	> 4 µM	> 4 µM	> 4 µM	> 20 µM	> 20 µM	> 20 µM	> 20 µM	> 20 µM	> 20 µM	10.3 µM	> 4 µM	> 4 µM	> 4 µM	Ratio IC50 (Plasmodium falciparum [1]): 2.38; selectivity ratio [2]: 82.3; selectivity ratio [3]: 34.4; EC50 (Human respirovirus 3): > 20 µM; EC50 (Punta Toro virus): > 20 µM; EC50 (Human betaherpesvirus 5 [13]): > 4 µM; EC50 (Human betaherpesvirus 5 [14]): > 4 µM; EC50 (Human alphaherpesvirus 3 [15]): > 4 µM; EC50 (Human alphaherpesvirus 3 [16]): > 4 µM; MCC [17]: 20 µM; IC50 (Plasmodium falciparum [19]): 0.134 µM; IC50 (Plasmodium falciparum [20]): 0.319 µM; EC50 (Vaccinia virus): > 4 µM; EC50 [21]: > 4 µM; EC50 [22]: > 20 µM
NC(=O)c1ncn([C@@H]2O[C@H](CO)[C@@H](O)[C@H]2O)n1 [RIBAVIRIN]						> 250 µM	> 250 µM						10 µM	> 250 µM	> 250 µM	250 µM	100 µM	7.2 to 9 µM	6.9 to 9 µM	4 to 4.5 µM	
